The text below walks through data of US20180305332A1, “Bispiperidinyl Derivatives as Liver X Receptor Beta Agonists, Compositions, and Their Use” (Merck Sharp & Dohme Corp., priority 2015, published 2018).

Test [1] addresses T1, GST tagged LXRalpha LBD (ligand binding domain) (Homo sapiens, UniProt Q13133).
T1 construct: purchased Invitrogen pv4655
T1 sequence (Q13133 209-447 limits assumed): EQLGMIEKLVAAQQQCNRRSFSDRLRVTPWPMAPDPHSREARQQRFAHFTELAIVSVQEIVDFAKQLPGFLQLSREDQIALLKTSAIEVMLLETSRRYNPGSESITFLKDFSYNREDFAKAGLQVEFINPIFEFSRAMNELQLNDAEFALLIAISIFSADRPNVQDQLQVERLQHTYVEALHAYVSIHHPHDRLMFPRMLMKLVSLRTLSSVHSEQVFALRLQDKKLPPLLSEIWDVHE
Kind of test: LanthaScreen TR-FRET Liver X Receptor Coactivator Assay, LXR alpha-LBD. Format: biochemical. To be noted: relative to reference T0901317; for EC50 / LXR alpha IP (nM): Inflection Point (potency), co-activator recruitment; for EC50: read-out: LXR alpha IP; for Emax: read-out: LXR alpha act @ max dose (%). The procedure: (§1) Potency (Inflection Point, IP) and efficacy (Emax) are evaluated via compound-induced co-activator recruitment to glutathione-S-transferase (GST) tagged LXRbeta and LXRalpha LBD (ligand binding domain) proteins in relation to reference dual agonist compound T0901317 (N-(2,2,2-Trifluoroethyl)-N-[4-[2,2,2-trifluoro-1-hydroxy-1-(trifluoromethyl)ethyl] phenyl]benzenesulfonamide) using the LanthaScreen™ TR-FRET Liver X Receptor Coactivator Assays according to manufacturer's instructions (Invitrogen catalog number pv4658.pps and pv4655). While running the LanthaScreen™ TR-FRET Liver X Receptor Coactivator Assay, LXR alpha-LBD or LXR beta-LBD was added to ligand test compounds followed by addition of a mixture of a fluorescein-labelled coactivator peptide and terbium-conjugated anti-GST antibody. After an incubation period at room temperature, TR-FRET (time-resolved fluorescence resonance energy transfer) was measured using a filter-based instrument capable of TR-FRET, e.g. PerkinElmer Envision.

The target of test [2] is T2, GST tagged LXRbeta LBD (ligand binding domain) (Homo sapiens, UniProt P55055).
T2 construct: purchased Invitrogen pv4658.pps
T2 sequence (P55055 222-460 limits assumed): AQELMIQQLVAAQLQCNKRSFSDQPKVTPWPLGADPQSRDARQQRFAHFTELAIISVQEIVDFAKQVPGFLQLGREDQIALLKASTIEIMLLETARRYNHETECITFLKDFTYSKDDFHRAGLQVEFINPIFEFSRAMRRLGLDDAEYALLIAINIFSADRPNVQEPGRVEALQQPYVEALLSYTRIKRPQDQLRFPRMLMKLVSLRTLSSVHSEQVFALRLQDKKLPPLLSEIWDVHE
Kind of test: LanthaScreen TR-FRET Liver X Receptor Coactivator Assay, LXR beta-LBD. Format: biochemical. To be noted: relative to reference T0901317; for EC50: Inflection Point (potency), co-activator recruitment, read-out: LXR beta IP; for Emax: read-out: LXR beta act @ max dose (%). The method, then: as §1
A general note: In TR-FRET formats the signal depends on donor and acceptor labels being close together.

Where [3] appears, read: activity at max dose (efficacy).

Take `CN(C)C(=O)c1ccc(N2CCC(C3CCN(C(=O)C(C)(C)c4ccc(Cl)cc4)CC3)CC2)cc1Cl` [Example A-44, 2-chloro-4-{1′-[2-(4-chlorophenyl)-2-methylpropanoyl]-4,4′-bipiperidin-1-yl}-N,N-dimethylbenzamide]: the values for the EC50 in test [1] and in test [2] were 1980 nM and 143 nM, respectively. Besides, the results for the Emax in test [1] (setting [3]) and in test [2] (setting [3]) were 22% and 95%, respectively.
For `CN(C)C(=O)c1c(Cl)cc(N2CCC(C3CCN(C(=O)c4c(F)cccc4F)CC3)CC2)cc1Cl` [Example A-32, 2,6-dichloro-4-{1′-[(2,6-difluorophenyl)carbonyl]-4,4′-bipiperidin-1-yl}-N,N-dimethylbenzamide], in that order: 748 nM, 101 nM, 24% and 88%.
Take `COc1ccc(C2(C(=O)N3CCC(C4CCN(c5ccc(C(=O)N(C)C)c(Cl)c5)CC4)CC3)CCCC2)cc1` [Example A-46, 2-chloro-4-(1′-{[1-(4-methoxyphenyl)cyclopentyl]carbonyl}-4,4′-bipiperidin-1-yl)-N,N-dimethylbenzamide]: in test [1], the “LXR alpha IP (nM)” value was “NO IP”. The Emax in test [1] (setting [3]) amounted to 0%; in test [2] (setting [3]) it was 34%. The EC50 in test [2] was found to be 187 nM.
In the case of `CN(C)C(=O)c1ccc(N2CCC(C3CCN(C(=O)c4c(Cl)cccc4Cl)CC3)CC2)nc1Cl` [Example B-10, 2-chloro-6-{1′-[(2,6-dichlorophenyl)carbonyl]-4,4′-bipiperidin-1-yl}-N,N-dimethylpyridine-3-carboxamide], the EC50 in test [1] stood at 1370 nM; in test [2] it was 161 nM. Further, the Emax in test [1] (setting [3]) was 55%; in test [2] (setting [3]), 106%.
For `CN(C)C(=O)c1ccc(N2CCC(C3CCN(C(=O)C(C)(C)c4ccccc4)CC3)CC2)nc1Cl` [Example B-12, 2-chloro-N,N-dimethyl-6-[1′-(2-methyl-2-phenylpropanoyl)-4,4′-bipiperidin-1-yl]pyridine-3-carboxamide], in that order: 684 nM, 65 nM, 69% and 140%.
For `CC(C)C(O)(C(=O)N1CCC(C2CCN(c3cc(F)c(C(=O)N(C)C)c(F)c3)CC2)CC1)C(F)(F)F` [Example D-1, 2,6-difluoro-4-{1′-[2-hydroxy-3-methyl-2-(trifluoromethyl)butanoyl]-4,4′-bipiperidin-1-yl}-N,N-dimethylbenzamide], in that order: 1450 nM, 157 nM, 43% and 101%.
For `CN(C)C(=O)c1ccc(N2CCC(C3CCN(C(=O)C(C)(O)C(F)(F)F)CC3)CC2)nc1Cl` (centres unmarked) [Example B-11, 2-chloro-N,N-dimethyl-6-[1′-(3,3,3-trifluoro-2-hydroxy-2-methylpropanoyl)-4,4′-bipiperidin-1-yl]pyridine-3-carboxamide], in that order: 2200 nM, 177 nM, 48% and 116%.
`CN(C)C(=O)c1ccc(N2CCC(C3CCN(C(=O)c4c(F)cc(F)cc4F)CC3)CC2)cc1Cl` [Example A-37, 2-chloro-N,N-dimethyl-4-{1′-[(2,4,6-trifluorophenyl)carbonyl]-4,4′-bipiperidin-1-yl}benzamide]: the EC50 in test [1] was determined as 4100 nM; in test [2], 274 nM. Also, the Emax in test [1] (setting [3]) was found to be 35%; in test [2] (setting [3]) it was 93%.
For the compound `CN(C)C(=O)c1ccc(N2CCC(C3CCN(S(=O)(=O)c4ccccc4Cl)CC3)CC2)cc1Cl` [Example A-103, 2-chloro-4-{1′-[(2-chlorophenyl)sulfonyl]-4,4′-bipiperidin-1-yl}-N,N-dimethylbenzamide], the figures for the EC50 in test [1] and in test [2] were 2190 nM and 16 nM, respectively. Besides, the Emax was 54% in test [1] (setting [3]) and 122% in test [2] (setting [3]).
For `CN(C)C(=O)c1ccc(N2CCC(C3CCN(C(=O)[C@](O)(c4ccccc4)C(F)(F)C(F)(F)F)CC3)CC2)cc1Cl` (single isomer, unassigned) [Example A-20], in that order: 625 nM, 35 nM, 0% and 146%.
For `CNC(=O)c1ccc(N2CCC(C3CCN(C(=O)[C@](O)(c4ccccc4)C(F)(F)F)CC3)CC2)cc1Cl` [Example E-62, 2-chloro-N-methyl-4-{1′-[(2R)-3,3,3-trifluoro-2-hydroxy-2-phenylpropanoyl]-4,4′-bipiperidin-1-yl}benzamide] the same measures were 2060 nM, 341 nM, 33% and 99%.
For `CN(C)C(=O)c1ccc(N2CCC(C3CCN(C(=O)C(c4ccccc4)C(F)(F)F)CC3)CC2)cc1Cl` (centres unmarked) [Example A-98, 2-chloro-N,N-dimethyl-4-[1′-(3,3,3-trifluoro-2-phenylpropanoyl)-4,4′-bipiperidin-1-yl]benzamide], the EC50 in test [1] amounted to 4960 nM; in test [2], 324 nM. For the same compound, the values for the Emax in test [1] (setting [3]) and in test [2] (setting [3]) were 33% and 92%, respectively.
For `COc1cccc(C2(C(=O)N3CCC(C4CCN(c5ccc(C(=O)N(C)C)c(Cl)c5)CC4)CC3)CCCC2)c1` [Example A-78, 2-chloro-4-(1′-{[1-(3-methoxyphenyl)cyclopentyl]carbonyl}-4,4′-bipiperidin-1-yl)-N,N-dimethylbenzamide], the “LXR alpha IP (nM)” value in test [1] is given as “NO IP”. The Emax in test [1] (setting [3]) was determined as 15%; in test [2] (setting [3]), 81%. For the same compound, the EC50 in test [2] amounted to 210 nM.
In the case of `CN(C)C(=O)c1ccc(N2CCC(C3CCN(C(=O)[C@](O)(c4ccccc4)C(F)(F)C(F)(F)F)CC3)CC2)nc1Cl` (single isomer, unassigned) [Example B-16], the EC50 was 1340 nM in test [1] and 89 nM in test [2]. Further, the results for the Emax in test [1] (setting [3]) and in test [2] (setting [3]) were 17% and 91%, respectively.
For `O=C(c1ccc(N2CCC(C3CCN(C(=O)[C@](O)(c4ccccc4)C(F)(F)F)CC3)CC2)cc1Cl)N1CC[C@H](F)C1` [Example E-26, (2R)-3-[1′-(3-chloro-4-{[(3S)-3-fluoropyrrolidin-1-yl]carbonyl}phenyl)-4,4′-bipiperidin-1-yl]-1,1,1-trifluoro-3-oxo-2-phenylpropan-2-ol], in that order: 1450 nM, 279 nM, 25% and 92%.
For `CC(C)C(O)(C(=O)N1CCC(C2CCN(c3ccc(C(=O)N(C)C)c(Cl)c3)CC2)CC1)C1CC1` (centres unmarked) [Example A-110, 2-chloro-4-[1′-(2-cyclopropyl-2-hydroxy-3-methylbutanoyl)-4,4′-bipiperidin-1-yl]-N,N-dimethylbenzmamide], in that order: 1040 nM, 52 nM, 69% and 127%.
`COc1cccc(C(O)(C(=O)N2CCC(C3CCN(c4ccc(C(=O)N(C)C)c(Cl)c4)CC3)CC2)C(F)(F)C(F)(F)F)c1` (centres unmarked) [Example A-85, 2-chloro-N,N-dimethyl-4-{1′-[3,3,4,4,4-pentafluoro-2-hydroxy-2-(3-methoxyphenyl)butanoyl]-4,4′-bipiperidin-1-yl}benzamide]: the EC50 came to 1120 nM in test [1] and 180 nM in test [2]. Besides, in test [1] (setting [3]), the “LXR alpha act @ max dose (%)” value was 41%. In test [2] (setting [3]), the “LXR beta act @ max dose (%)” value was determined as 115%.
